What was measured:
P12-Ichikawa [1] = experiment: cell viability relative to DMSO control; higher = less cytotoxic; details: HPLM + 10% dialyzed FBS, 48 h
Method in brief: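 Viability values are per-plate percentages of DMSO wells, with background from cell-free wells. Library compounds in DMSO were pin-dosed, in an 11-point threefold series from 47 μM to 0.79 nM, onto NOMO1 or SEM (500 cells/well) or P12-Ichikawa (1000 cells/well) leukemia cells in 1536-well plates (5 μl). Those cells had been adapted for at least four passages in each medium, and CellTiter-Glo One luminescence was read after 48 h at 37°C.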

NOMO1 = experiment: AUC of viability dose-response curve (% viability x log10 dose units); higher = less sensitive; details: 48 h
Method in brief: (§1)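 Leukemia cells adapted to each medium were seeded in 1536-well plates (500 or 1000 cells/well) and given library compounds in DMSO for 48 h at 37°C. The 11 threefold doses spanned 47 μM to 0.79 nM, and CellTiter-Glo One luminescence was normalised per plate to DMSO and cell-free wells before four-parameter log-logistic fitting on log10 dose. Area under the curve was integrated with the trapezoidal rule, scaling curves above full viability and removing curves that failed quality control.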

SEM cells = experiment: as above; details: 48 h
Method in brief: as §1

P12-Ichikawa [2] = experiment: as above; details: 48 h
Method in brief: as §1

[3] = RPMI 5 mM glucose + 10% dialyzed FBS

SMILES | cell viability (P12-Ichikawa [1]; 0.000781 µM) [%] | cell viability (P12-Ichikawa [1]; 0.00234 µM) [%] | cell viability (P12-Ichikawa [1]; 0.00702 µM) [%] | cell viability (P12-Ichikawa [1]; 0.0211 µM) [%] | cell viability (P12-Ichikawa [1]; 0.0632 µM) [%] | cell viability (P12-Ichikawa [1]; 0.19 µM) [%] | cell viability (P12-Ichikawa [1]; 0.569 µM) [%] | cell viability (P12-Ichikawa [1]; 1.71 µM) [%] | cell viability (P12-Ichikawa [1]; 5.12 µM) [%] | cell viability (P12-Ichikawa [1]; 15.4 µM) [%] | cell viability (P12-Ichikawa [1]; 46.1 µM) [%] | AUC of viability dose-response curve (NOMO1; HPLM + 10% dialyzed FBS) | AUC of viability dose-response curve (NOMO1; RPMI 5 mM glucose + 10% FBS) | AUC of viability dose-response curve (NOMO1; [3]) | AUC of viability dose-response curve (SEM cells; HPLM + 10% dialyzed FBS) | AUC of viability dose-response curve (SEM cells; RPMI 5 mM glucose + 10% FBS) | AUC of viability dose-response curve (SEM cells; [3]) | AUC of viability dose-response curve (P12-Ichikawa [2]; HPLM + 10% dialyzed FBS) | AUC of viability dose-response curve (P12-Ichikawa [2]; RPMI 5 mM glucose + 10% FBS) | AUC of viability dose-response curve (P12-Ichikawa [2]; [3])
COc1ccc(-n2nc(C(N)=O)c3c2C(=O)N(c2ccc(N4CCCCC4=O)cc2)CC3)cc1 | 118 | 121 | 125 | 132 | 132 | 127 | 141 | 124 | 16 | 15.2 | 14.8 | 313 | 270 | 300 | 464 | 432 | 442 | 371 | 370 | 381
S=C1N\C=N/C2=C1[NH]C=N2 |  |  |  |  |  |  |  |  |  |  |  | 425 | 446 | 360 | 445 | 409 | 360 | 404 | 377 | 343

From the supplement of paper PMC11451515
